Test results taken from patent publication US8361968B2 (Takeda Pharmaceutical Company Limited, priority 2002, dated 2013).
pIC50: −log10 of the molar value. Square brackets hold non-standard residues; d marks the D form. Peptide text beside a SMILES is read from it. * marks the point of attachment. NαAmidinoTrp = N=C(N)N[C@@H](Cc1c[nH]c2ccccc12)C(=O)*; Phe(4-F) = N[C@@H](Cc1ccc(F)cc1)C(=O)O; 1Nal = N[C@@H](Cc1cccc2ccccc12)C(=O)O; Arg(Me) = CNC(=N)NCCC[C@H](N)C(=O)O; Bta = N[C@@H](Cc1csc2ccccc12)C(=O)O; Hydrocinnamoyl = O=C(CCc1ccccc1)*; 2Pal = N[C@@H](Cc1ccccn1)C(=O)O; Cha = N[C@@H](CC1CCCCC1)C(=O)O; X3 = NC(=S)[C@H](Cc1ccccc1)N*; azaGly = NNC(=O)O

Assays:
[1] = target: T1, hOT7T175 (Homo sapiens, UniProt Q969F8, L364H); assay: Intracellular Ca ion level-increasing activity using FLIPR in hOT7T175/CHO; format: cell-based; set-up: expressed in transfected cells; host or cells: CHO/dhfr- cells, obtained from ATCC; conditions: relative, Metastin (1-54) = 1
[2] = target: T1, hOT7T175; assay: hOT7T175 receptor binding activity: binding inhibition of Cy-5-labeled metastin (40-54) on hOT7T175-expressed CHO cells; set-up: expressed in transfected cells; host or cells: CHO cells
Description: Assay for hOT7T175 Receptor Binding Activity
h0T7T175-Expressed CHO cells were cultured in MEM-cc medium (nucleic acid-free) containing 10% dialyzed serum. The medium was removed and the adherent cells were washed with PBS. Then, PBS containing 5 mM EDTA was added and the cells were scraped from a flask with a cell scraper. […] To each well of a 96-Well Black Clear Bottom Plate (Applied Biosystems, Inc.), 10 μL of assay buffer containing 1% dimethylsulfoxide was added to examine total binding, 10 μL of 10 μM non-labeled peptide (having the same amino acid sequence as that of the labeled one) solution diluted with assay buffer to examine non-specific binding, and 10 μL of a test compound diluted with assay buffer to examine the binding inhibition activity of the test compound, respectively. Furthermore, 90 μL each of the cell suspension was dispensed to each well. […] The specific binding is a value obtained by subtracting the non-specific binding from the total binding.

T1 sequence (Q969F8 whole entry L364H): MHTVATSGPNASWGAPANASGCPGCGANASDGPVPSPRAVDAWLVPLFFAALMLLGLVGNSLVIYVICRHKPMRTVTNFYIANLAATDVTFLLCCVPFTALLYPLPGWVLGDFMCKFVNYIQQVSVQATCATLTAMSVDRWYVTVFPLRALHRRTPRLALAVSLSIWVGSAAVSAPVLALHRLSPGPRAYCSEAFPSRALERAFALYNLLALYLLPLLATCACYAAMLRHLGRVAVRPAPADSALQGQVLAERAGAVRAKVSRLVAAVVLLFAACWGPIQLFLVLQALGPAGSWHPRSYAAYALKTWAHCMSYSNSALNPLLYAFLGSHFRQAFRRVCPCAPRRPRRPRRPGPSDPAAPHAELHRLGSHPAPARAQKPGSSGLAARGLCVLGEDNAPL

Structure (SMILES) | Specific Activity (intracellular Ca ion level-increasing activity) [1] | pIC50 [2]
CNC(=N)NCCC[C@H](NC(=O)[C@H](CC(C)C)NC(=O)NNC(=O)[C@H](Cc1ccccc1)NC(=O)[C@H](CO)NC(=O)[C@H](CC(N)=O)NC(=O)[C@H](Cc1c[nH]c2ccccc12)NC(=O)[C@H](N)Cc1ccc(O)cc1)C(=O)N[C@@H](Cc1ccccc1)C(N)=O [Compound No. 222, D-Tyr-Trp-Asn-Ser-Phe-AzaGly-Leu-Arg(Me)-Phe-NH2] (H-[dY]WNSF[azaGly]L[Arg(Me)]F-NH2) | 5 | 7.48
CNC(=N)NCCC[C@H](NC(=O)[C@H](CC(C)C)NC(=O)NNC(=O)[C@H](Cc1ccccc1)NC(=O)[C@H](CO)NC(=O)[C@H](CC(N)=O)NC(=O)[C@H](Cc1c[nH]c2ccccc12)NC(C)=O)C(=O)N[C@@H](Cc1ccccc1)C(N)=O [Compound No. 272, Acetyl-Trp-Asn-Ser-Phe-AzaGly-Leu-Arg(Me)-Phe-NH2] (Ac-WNSF[azaGly]L[Arg(Me)]F-NH2) | 2 | 6.27
CNC(=N)NCCC[C@H](NC(=O)[C@H](CC(C)C)NC(=O)NNC(=O)[C@H](Cc1ccccc1)NC(=O)[C@H](CO)NC(=O)[C@H](CC(N)=O)NC(=O)[C@@H](NC(=O)[C@@H](CC(N)=O)NC(=O)[C@H](N)Cc1ccc(O)cc1)[C@@H](C)O)C(=O)N[C@@H](Cc1ccc(F)cc1)C(N)=O [Compound No. 316, D-Tyr-D-Asn-Thr-Asn-Ser-Phe-AzaGly-Leu-Arg(Me)-Phe(4F)-NH2] (H-[dY][dN]TNSF[azaGly]L[Arg(Me)][Phe(4-F)]-NH2) | 1 | 7.59
CNC(=N)NCCC[C@H](NC(=O)[C@H](CC(C)C)NC(=O)NNC(=O)[C@H](Cc1ccccc1)NC(=O)[C@H](Cc1ccccc1)NC(=O)[C@H](CO)NC(=O)[C@H](CC(N)=O)NC(=O)[C@H](Cc1ccccc1)NC(=O)[C@H](CC(N)=O)NC(=O)[C@H](N)Cc1ccc(O)cc1)C(=O)N[C@@H](Cc1ccccc1)C(N)=O [Compound No. 270, D-Tyr-Asn-Phe-Asn-Ser-Phe-Phe-AzaGly-Leu-Arg(Me)-Phe-NH2] (H-[dY]NFNSFF[azaGly]L[Arg(Me)]F-NH2) | 1 | 7.82
CC(C)C[C@H](NC(=O)CNC(=O)[C@H](Cc1ccccc1)NC(=O)[C@H](CO)NC(=O)[C@H](CC(N)=O)NC(=O)[C@H](Cc1c[nH]c2ccccc12)NC(=O)[C@H](CC(N)=O)NC(=O)[C@H](N)Cc1ccc(O)cc1)C(=O)N[C@@H](CCCNC(=N)N)C(=O)N[C@@H](Cc1ccccc1)C(N)=S [Compound No. 146] (H-[dY]NWNSFGLR-X3) | 10 | 6.43
CC(C)C[C@H](NC(=O)CNC(=O)[C@H](Cc1ccccc1)NC(=O)[C@H](CO)NC(=O)[C@H](CC(N)=O)NC(=O)[C@H](Cc1c[nH]c2ccccc12)NC(=O)[C@H](CC(N)=O)NC(=O)[C@@H](N)Cc1ccc(O)cc1)C(=O)N[C@@H](CCCNC(=N)N)C(=O)N[C@@H](Cc1cccc2ccccc12)C(N)=O [Compound No. 133] (H-YNWNSFGLR[1Nal]-NH2) | 3 | 6.48
CNC(=N)NCCC[C@H](NC(=O)[C@H](CC(C)C)NC(=O)CNC(=O)[C@H](CC1CCCCC1)NC(=O)[C@H](CO)NC(=O)[C@H](CC(N)=O)NC(=O)[C@H](CC1CCCCC1)NC(=O)[C@H](CC(N)=O)NC(=O)[C@H](N)Cc1ccc(O)cc1)C(=O)N[C@@H](Cc1c[nH]c2ccccc12)C(N)=O [Compound No. 182, D-Tyr-Asn-Cha-Asn-Ser-Cha-Gly-Leu-Arg(Me)-Trp-NH2] (H-[dY]N[Cha]NS[Cha]GL[Arg(Me)]W-NH2) | 5 | 7.01
CNC(=N)NCCC[C@H](NC(=O)[C@H](CC(C)C)NC(=O)NNC(=O)[C@H](Cc1ccccc1)NC(=O)[C@H](CO)NC(=O)[C@H](CC(N)=O)NC(=O)[C@H](Cc1c[nH]c2ccccc12)NC(=N)N)C(=O)N[C@@H](Cc1ccccc1)C(N)=O [Compound No. 273, Amidino-Trp-Asn-Ser-Phe-AzaGly-Leu-Arg(Me)-Phe-NH2] (NαAmidinoTrp-NSF[azaGly]L[Arg(Me)]F-NH2) | 5 | 6.52
CC(C)C[C@H](NC(=O)CNC(=O)[C@H](Cc1ccccc1)NC(=O)[C@H](CO)NC(=O)[C@H](CC(N)=O)NC(=O)[C@H](Cc1c[nH]c2ccccc12)NC(=O)[C@H](CC(N)=O)NC(=O)[C@@H](N)Cc1ccc(O)cc1)C(=O)N[C@@H](CCCNC(=N)N)C(=O)N[C@@H](Cc1csc2ccccc12)C(N)=O [Compound No. 189] (H-YNWNSFGLR[Bta]-NH2; N-terminus assumed) | 10 | 6.64
CC(C)C[C@H](NC(=O)[C@H](CO)NC(=O)[C@H](Cc1ccccc1)NC(=O)[C@H](CO)NC(=O)[C@H](CC(N)=O)NC(=O)[C@H](Cc1c[nH]c2ccccc12)NC(=O)[C@H](CC(N)=O)NC(=O)[C@@H](N)Cc1ccc(O)cc1)C(=O)N[C@@H](CCCNC(=N)N)C(=O)N[C@@H](Cc1ccccc1)C(N)=O [Compound No. 101] (H-YNWNSFSLRF-NH2) | 10 | 7.00
CNC(=N)NCCC[C@H](NC(=O)[C@H](CC(C)C)NC(=O)CNC(=O)[C@H](Cc1ccccc1)NC(=O)[C@H](CO)NC(=O)[C@H](CC(N)=O)NC(=O)[C@H](CC1CCCCC1)NC(=O)[C@H](CC(N)=O)NC(=O)[C@H](N)Cc1ccc(O)cc1)C(=O)N[C@@H](Cc1ccccc1)C(N)=O [Compound No. 171, D-Tyr-Asn-Cha-Asn-Ser-Phe-Gly-Leu-Arg(Me)-Phe-NH2] (H-[dY]N[Cha]NSFGL[Arg(Me)]F-NH2) | 10 | 6.96
CNC(=N)NCCC[C@H](NC(=O)[C@H](CC(C)C)NC(=O)CNC(=O)[C@H](Cc1ccccc1)NC(=O)[C@H](CO)NC(=O)[C@H](CC(N)=O)NC(=O)[C@@H](Cc1c[nH]c2ccccc12)NC(=O)[C@H](CC(N)=O)NC(=O)[C@@H](N)Cc1ccc(O)cc1)C(=O)N[C@@H](Cc1ccccc1)C(N)=O [Compound No. 143, Tyr-Asn-D-Trp-Asn-Ser-Phe-Gly-Leu-Arg(Me)-Phe-NH2] | 3 | 8.11
CNC(=N)NCCC[C@H](NC(=O)[C@H](CC(C)C)NC(=O)NNC(=O)[C@H](Cc1ccccc1)NC(=O)[C@H](CO)NC(=O)[C@H](CC(N)=O)NC(=O)CCc1ccccc1)C(=O)N[C@@H](Cc1ccccc1)C(N)=O [Compound No. 269, 3-Phenylpropionyl-Asn-Ser-Phe-AzaGly-Leu-Arg(Me)-Phe-NH2] (Hydrocinnamoyl-NSF[azaGly]L[Arg(Me)]F-NH2) | 3 | 6.33
CNC(=N)NCCC[C@H](NC(=O)[C@H](CC(C)C)NC(=O)CNC(=O)[C@H](Cc1ccccn1)NC(=O)[C@H](CO)NC(=O)[C@H](CC(N)=O)NC(=O)[C@H](Cc1c[nH]c2ccccc12)NC(=O)[C@H](CC(N)=O)NC(=O)[C@H](N)Cc1ccc(O)cc1)C(=O)N[C@@H](Cc1ccccc1)C(N)=O [Compound No. 281, D-Tyr-Asn-Trp-Asn-Ser-Pya(2)-Gly-Leu-Arg(Me)-Phe-NH2] (H-[dY]NWNS[2Pal]GL[Arg(Me)]F-NH2) | ½ | 6.64
